According to patent US9370529B2, “Tannin inhibitors of HIV” (priority 2012, dated 2016):

Legend:
[1] = test system: CXCR4 tropic HIV NL4-3; test: HIV-infection study in HeLa37 cells (HIV antigen-positive cell count, % control); format: cell-based, HIV-1; details: for TI (therapeutic index, cytotoxicity/antiviral activity): CC50/IC50; for IC50: Human immunodeficiency virus 1, NL43, HeLa37 cells, 40 h, MOI=0.01, FIG. 1/FIG. 2, read-out: IC50 (anti-HIV activity)
Method: Stocks of HIV-1 were generated by transfecting a 150 cm plate of 80% confluent HEK 293T cells with 75 μg of the HIV molecular clone pNL4-3 by using the CaPO4 procedure of F. L. Graham et al., J. Gen. Viol., 36, 59 (1977). Supernatants were collected at 48-h post-transfection, clarified to remove cell debris and frozen at −80° C. until needed. Virus production was assessed by reverse transcriptase activity in the viral stocks and by the single round of infection assay in HeLa37 cells described below. RT assays were performed as described by R. L. Wiley, PNAS USA, 83, 5038 (1986).
(§1) All extracts or fractions were resuspended in DMSO. 2.5×10^2 infectious particles of HIV (MOI=0.01) were combined with the concentrations of IA or IB noted in the figures. The amount of DMSO was adjusted so that equivalent concentrations of DMSO were used in all wells. […] The tannin and HIV mixture was added to 2.5×10^4 cells/well of HeLa37 cells in a 48-well format. The cells were maintained for 40 h at 37° C. in a CO2 incubator. Cells were fixed in 75% acetone/25% water and immunostained for HIV antigens with human anti-HIV antisera (1:500) followed by HRP-conjugated goat anti-human IgG (1:500). 3-amino-9-ethyl-carbazole was used as the horse radish peroxidase substrate. Plates were dried and wells were counted for the number of HIV antigen-positive cells.

[2] = test system: CCR5 tropic HIV AD8; test: HIV-infection study in HeLa37 cells, CCR5 tropic virus; format: cell-based; details: FIG. 2; equivalent concentrations
Method: as §1

[3] = Cell-viability study (ATPLite Assay); format: cell-based; details: human; HeLa37 cells, 40 h after treatment initiation
Method: HeLa37 cells were plated and treated with IA or IB as described above. Cell viability was monitored at 40 h after treatment initiation by ATPLite Assay (Packard Biosciences) per manufacturer's instructions.

SMILES	TI (therapeutic index, cytotoxicity/antiviral activity) [1]	Inhibition of CXCR4 (NL4-3) tropic HIV strain ([1]; FIG. 2)	IC50 [1] [nM]	Enhancement of the antiviral activity of AMD3100 ([1]; combination with 3 μM AMD3100, increasing concentrations of IB, HIV NL-4-3, FIG. 3)	Inhibition of CCR5 (AD8) tropic HIV strain [2]	CC50 at 40 h [3] [nM]
CO[C@@H]1OC2COC(=O)c3cc(O)c(O)c(O)c3-c3c(cc(O)c(O)c3O)C(=O)O[C@H]2C(OC(=O)c2cc(O)c(O)c(O)c2)C1OC(=O)c1cc(O)c(O)c(O)c1 (stereo partly drawn) [Tannin IB, (11aR,13S,14R,15S,15aR)-2,3,4,5,6,7-hexahydroxy-13-methoxy-9,17-dioxo-9,11,11a,13,14,15,15a,17-octahydrodibenzo[g,i]pyrano[3,2-b][1,5]dioxacycloundecine-14,15-diyl-bis (3,4,5-trihydroxybenzoate)]	about 900	effectively able to inhibit	~120	more than a log	effectively able to inhibit	> 100000
CO[C@@H]1OC2COC(=O)c3cc(O)c(O)c(O)c3-c3c(cc(O)c(O)c3O)C(=O)O[C@H]2C(O)C1O (stereo partly drawn) [Tannin IA, (11aR,13S,14R,15R,15aS)-2,3,4,5,6,7,14,15-octahydroxy-13-methoxy-11,11a,13,14,15,15a-hexahydrodibenzo[g,i]pyrano[3,2-b][1,5]dioxacycloundecine-9,17-dione]	~909	–	~110	–	–	~100000
